Reference: patent US20070259916A1, “mGluR5 modulators II” (AstraZeneca AB, priority 2006, published 2007)

Assays:
[1] = Determination of brain to plasma ratio in rat; format: in vivo; conditions: brain and plasma, female Sprague Dawley rats, drug in brain over drug in plasma, read-out: Brain/Plasma Ratio of compound in Rat
Description: Brain to plasma ratios are estimated in female Sprague Dawley rats. The compound is dissolved in water or another appropriate vehicle. For determination of brain to plasma ratio the compound is administrated as a subcutaneous, or an intravenous bolus injection, or an intravenous infusion, or an oral administration. At a predetermined time point after the administration a blood sample is taken with cardiac puncture. The rat is terminated by cutting the heart open, and the brain is immediately retained. The blood samples are collected in heparinized tubes and centrifuged within 30 minutes, in order to separate the plasma from the blood cells. The plasma is transferred to 96-well plates and stored at −20° C. until analysis. The brains are divided in half, and each half is placed in a pre-tarred tube and stored at −20° C. until analysis. Prior to the analysis, the brain samples are thawed and 3 ml/g brain tissue of distilled water is added to the tubes. The brain samples are sonicated in an ice bath until the samples are homogenized. Both brain and plasma samples are precipitated with acetonitrile. After centrifugation, the supernatant is diluted with 0.2% formic acid. […] After reconstitution of the residuals the samples are ready for injection onto the HPLC column.

human mGluR5d = target: T1, human mGluR5d (Homo sapiens, UniProt P41594); experiment: FLIPR assay, functional assessment of mGluR5 antagonism (intracellular calcium mobilization); format: cell-based; conditions: cells expressing human mGluR5d; read-out: FLIPR hmGluR5d
T1 construct: expressed in transfected cells
T1 sequence (P41594 21-942 isoform P41594-3 limits assumed): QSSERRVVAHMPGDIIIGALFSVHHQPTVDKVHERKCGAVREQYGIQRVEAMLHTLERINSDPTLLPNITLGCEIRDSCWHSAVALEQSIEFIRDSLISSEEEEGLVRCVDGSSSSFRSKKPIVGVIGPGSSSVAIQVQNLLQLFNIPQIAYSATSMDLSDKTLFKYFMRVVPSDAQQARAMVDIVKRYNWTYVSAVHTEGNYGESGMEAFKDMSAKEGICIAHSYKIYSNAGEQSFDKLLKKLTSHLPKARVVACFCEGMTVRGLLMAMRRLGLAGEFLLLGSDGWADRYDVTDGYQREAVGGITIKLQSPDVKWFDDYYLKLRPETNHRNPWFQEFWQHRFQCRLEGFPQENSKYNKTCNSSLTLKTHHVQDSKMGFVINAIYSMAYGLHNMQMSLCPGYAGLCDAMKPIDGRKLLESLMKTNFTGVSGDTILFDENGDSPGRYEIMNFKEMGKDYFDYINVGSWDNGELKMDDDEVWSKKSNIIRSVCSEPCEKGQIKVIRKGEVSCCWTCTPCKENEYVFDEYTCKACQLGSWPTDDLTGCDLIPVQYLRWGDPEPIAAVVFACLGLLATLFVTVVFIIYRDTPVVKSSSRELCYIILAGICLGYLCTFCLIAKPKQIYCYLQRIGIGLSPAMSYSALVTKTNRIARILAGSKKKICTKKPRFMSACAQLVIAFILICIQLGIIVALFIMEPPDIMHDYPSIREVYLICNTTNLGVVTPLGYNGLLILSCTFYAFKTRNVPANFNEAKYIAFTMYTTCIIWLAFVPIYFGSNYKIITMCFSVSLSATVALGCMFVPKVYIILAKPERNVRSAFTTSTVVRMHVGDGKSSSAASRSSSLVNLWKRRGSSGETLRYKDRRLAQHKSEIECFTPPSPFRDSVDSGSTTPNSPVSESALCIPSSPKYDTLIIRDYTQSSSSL
Source text: Functional Assessment of mGluR5 Antagonism in Cell Lines Expressing mGluR5D
The properties of the compounds of the invention can be analyzed using standard assays for pharmacological activity. Examples of glutamate receptor assays are well known in the art as described in for example Aramori et al., Neuron 8:757 (1992), Tanabe et al., Neuron 8:169 (1992), Miller et al., J. Neuroscience 15: 6103 (1995), Balazs, et al., J. Neurochemistry 69:151 (1997). The methodology described in these publications is incorporated herein by reference. Conveniently, the compounds of the invention can be studied by means of an assay (FLIPR) that measures the mobilization of intracellular calcium, [Ca^2+] in cells expressing mGluR5 or another assay (IP3) that measures inositol phosphate turnover.
Cells expressing human mGluR5d as described in WO97/05252 are seeded at a density of 100,000 cells per well on collagen coated clear bottom 96-well plates with black sides and experiments are done 24 h following seeding. […] The fluorescence signal is sampled 50 times at 1 second intervals followed by 3 samples at 5 second intervals immediately after each of the two additions. Responses are measured as the difference between the peak height of the response to agonist, less the background fluorescence within the sample period. […]

| Kp [1] | IC50 (human mGluR5d) | SMILES |
| --- | --- | --- |
| 0.085 | 193 nM | Cn1c(-c2cccnc2)nnc1N1CCCC[C@H]1c1nnn(-c2cccc(Cl)c2)n1 [Example 20.2, 3-(5-{(S)-2-[2-(3-Chloro-phenyl)-2H-tetrazol-5-yl]-piperidin-1-yl}-4-methyl-4H-[1,2,4]triazol-3-yl)-pyridine] |
| 0.06 | 110 nM | COc1cc(-c2nnc(N3CCCCC3c3nnn(-c4cccc(C#N)c4)n3)n2C)ccn1 (stereo not shown) [Example 19.11, 3-(5-{1-[5-(2-Methoxy-pyridin-4-yl)-4-methyl-4H-[1,2,4]triazol-3-yl]-piperidin-2-yl}-tetrazol-2-yl)-benzonitrile] |
